The nature of series [1]: Stability against temperature stress (dehydration, form conversion). It is filed as physicochemical.
The conditions of series [2]: stated in WO 2011/042560 A1; cited from earlier work.
The conditions of series [3]: stated in WO 2011/042560 A1 (page 17); cited from earlier work.
Series [4] can be described thus: Thermogravimetric analysis. As to conditions: up to a temperature of about 130° C.; 10 K/min; crystalline Form 1 (FIG. 4). It is filed as physicochemical. The protocol:
Thermogravimetric analysis (TGA) was performed on a Mettler TGA/DSC 1 instrument. The sample (6.30 mg) was heated in a 100 microL aluminum pan closed with an aluminum lid. The lid was automatically pierced at the beginning of the measurement. The sample was heated from 25 to 200° C. at a rate of 10 K/min. Nitrogen (purge rate 50 mL/min) was used as purge gas.

A short description of series [5]: Differential scanning calorimetry. It is filed as physicochemical. As to conditions: 10 K/min; crystalline Form 1 (FIG. 3). The protocol: Differential scanning calorimetry was performed on a Mettler Toledo Polymer DSC R instrument. The sample (1.27 mg) was heated in a 40 microL aluminium pan with pierced aluminium lid from 25 to 160° C. at a rate of 10 K/min. Nitrogen (purge rate 50 mL/min) was used as purge gas.
In general terms: Differential scanning calorimetry records heat flow against a reference as temperature is scanned.

A further series has as its system bacteria. As to conditions: at clinically relevant doses; reported; cited from earlier work.
The nature of series [6]: Stability against moisture / hygroscopicity.

Structures can show the parent of a compound that is named as a salt. Bounds are passed on as bounds.

As for `NC(=O)C1CCC2CN1C(=O)N2OS(=O)(=O)[O-].O.[Na+]` (stereo not shown) [form A], the “behaviour under temperature stress” value in series [1] is reported as “dehydrates to the anhydrous form B”.
On to `NC(=O)[C@@H]1CC[C@@H]2CN1C(=O)N2OS(=O)(=O)[O-].O.O.[Na+]` [form E], for which, in series [1] (temperature stress), the “temperature above which the form dehydrates (to monohydrate form A)” value is “above 60 °C”. For the same molecule, in series [2], the “relative humidity above which the form is particularly stable” value is on record as above 70%. Further, the “tendency to lose water and hydrolyze” value in series [3] was “tends to lose water and to hydrolyze”.
Turning to `NC(=O)[C@@H]1CC[C@@H]2CN1C(=O)N2OS(=O)(=O)O` [avibactam free acid, [(2S,5R)-2-carbamoyl-7-oxo-1,6-diazabicylco[3.2.1]octan-6-yl] hydrogen sulfate], the “weight loss, thermogravimetric analysis” value in series [4] is reported as “about 0.3 weight %”. Also, the “temperature up to which no thermal event is seen in the differential scanning calorimetry curve” value in series [5] is “at least 130 °C”. Besides, the “behaviour under temperature stress” value in series [1] was “very stable against temperature stress”. Further, the “antibacterial activity of its own” value in the series with bacteria was “no antibacterial activity at clinically relevant doses”. In addition, the hygroscopicity result in series [6] was “low hygroscopicity”. In addition, the stability against moisture result in series [6] (increased relative humidity levels) was “very stable against moisture”.

The record behind these values is US11124513B2, “Avibactam free acid” (Sandoz AG, priority 2016, dated 2021).
